The record followed here is ChEMBL document CHEMBL1781904, “Absolute configuration and selective trypanocidal activity of gaudichaudianic acid enantiomers” (J Nat Prod, 2011).

One experiment deals with Trypanosoma cruzi. The experiment is described as follows: Trypanocidal activity against Trypanosoma cruzi Y epimastigotes after 72 hrs by MTT assay. The experiment is classed as functional, organism-based.
Conditions: not given
Turning to `CC(C)=CCCC1(C)C=Cc2cc(C(=O)O)cc(CC=C(C)C)c2O1` (stereo in doubt; 1) [GAUDICHAUDIANIC ACID], the IC50 turned out to be 55.8 µM.
As for `CC(C)=CCCC1(C)C=Cc2cc(C(=O)O)cc(CC=C(C)C)c2O1` (racemic; form 2) [GAUDICHAUDIANIC ACID], the IC50 was determined as 197 µM.
The same measure, in the same setting: under `CC(C)=CCCC1(C)C=Cc2cc(C(=O)O)cc(CC=C(C)C)c2O1` (racemic; form 1) [GAUDICHAUDIANIC ACID] stands 111 µM.

Still in this experiment, the particulars now being: Trypanosoma cruzi, Y, 72 h.
Turning to `CC(C)=CCC[C@]1(C)C=Cc2cc(C(=O)O)cc(CC=C(C)C)c2O1`, the IC50 stood at 224 µM.
The same measure, in the same setting: the same measure for `CC(C)=CCC[C@@]1(C)C=Cc2cc(C(=O)O)cc(CC=C(C)C)c2O1`: 176 µM; for `O=C(Cn1ccnc1[N+](=O)[O-])NCc1ccccc1` [BENZNIDAZOLE]: 37.3 µM.
